A short description of this data set: Solubility in water and organic solvents. The class given is physicochemical.

The structures appear in SMILES notation.

Take `CC(=O)NC1[C@H](OCCCCCS)OC(CO)[C@H](O)[C@@H]1O[C@@H]1OC(CO)[C@H](O)[C@H](O)C1O` (stereo partly drawn) [126E-23]: the solubility in chloroform result (chloroform) is given as “moderately soluble”. The solubility in methanol entry (methanol (methanol and other organic solvents)) was “moderately soluble”. In addition, the solubility in water entry (water) is “soluble”.

These data come from patent US20070275007A1, “Carbohydrate Antigen-Nanoparticle Conjugates and Uses Thereof as Antimetastatic Agents in Treating Cancer” (The Government of the United States of America, represented …, priority 2003, published 2007).
